# Structures can show the parent of a compound that is named as a salt.
# Columns and labels:
# Type in all cases: biochemical
# Settings in all cases: class symbols
# CDK4/cyclin D3 = CDK4/cyclin D3 (Homo sapiens (Human), UniProt P11802); experiment: Kinase activity assay, Caliper Mobility Shift Assay, CDK4/cyclin D3
# Experimental: The inhibitory effect of the compound on the kinase CDK4/cyclin D3 was tested by the Caliper Mobility Shift Assay method. The final test concentration of the compound was 10 concentrations, which started from […] and were obtained by three-fold dilution. 5 μL of 5-fold final concentration compound and 10 μL of CDK4/Cyclin D3 kinase solution with final concentration of 10 nM were added to the 384-well reaction plate respectively, and pre incubated at room temperature for 10 minutes (the negative control well contained 10 μL kinase buffer and 5 μL 5% DMSO; the positive control well contained 10 μL kinase solution and 5 μL 5% DMSO). The mixture of 10 μL ATP with a final concentration of 250 μM and the corresponding substrate peptide was added to initiate the reaction, and the mixture was reacted at room temperature for 150 minutes. 30 μL of stop test solution containing EDTA was added to stop the kinase reaction. Conversion rate was read by Caliper EZ Reader. Conversion inhibition rate %=(average conversion rate of positive control %−sample conversion rate %)/(average conversion rate of positive control %−average conversion rate of negative control %). Wherein: the negative control well represents conversion rate reading of wells without enzyme activity; the positive control well represents conversion rate reading of wells without compound inhibition. The log value of concentration was taken as the X-axis and the percentage inhibition rate was the Y-axis. […] Calculation formula: Y=Bottom+(Top−Bottom)/(1+10^((Log IC50−X)*HillSlope)).
# CDK6/cyclin D3 = CDK6/cyclin D3 (Homo sapiens (Human), UniProt Q00534); experiment: Kinase activity assay, Caliper Mobility Shift Assay, CDK6/cyclin D3
# CDK6/cyclin D3, sequence (Q00534 whole entry, species assumed): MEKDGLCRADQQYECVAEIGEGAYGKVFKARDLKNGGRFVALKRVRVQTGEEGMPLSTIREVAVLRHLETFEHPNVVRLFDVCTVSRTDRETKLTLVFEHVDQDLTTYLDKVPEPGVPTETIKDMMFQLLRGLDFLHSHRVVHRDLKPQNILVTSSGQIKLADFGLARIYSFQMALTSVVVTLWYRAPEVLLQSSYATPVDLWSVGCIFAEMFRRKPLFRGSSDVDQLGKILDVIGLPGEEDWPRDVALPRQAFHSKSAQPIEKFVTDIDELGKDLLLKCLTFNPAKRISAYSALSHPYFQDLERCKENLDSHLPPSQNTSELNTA
# CDK6/cyclin D3, sequence (P30281 whole entry partner, species assumed): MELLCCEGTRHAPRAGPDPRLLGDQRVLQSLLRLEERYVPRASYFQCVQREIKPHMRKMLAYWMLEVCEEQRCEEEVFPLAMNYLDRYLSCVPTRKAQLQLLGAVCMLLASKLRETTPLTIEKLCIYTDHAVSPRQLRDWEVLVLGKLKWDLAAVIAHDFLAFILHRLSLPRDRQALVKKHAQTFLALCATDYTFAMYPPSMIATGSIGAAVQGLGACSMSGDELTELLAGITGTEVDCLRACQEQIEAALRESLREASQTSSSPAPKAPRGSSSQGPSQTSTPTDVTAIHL
# CDK2/cyclin A2 = CDK2/cyclin A2 (Homo sapiens (Human), UniProt P24941); experiment: Kinase activity assay, Caliper Mobility Shift Assay, CDK2/cyclin A2
# Experimental: The inhibitory effect of the compound on the kinase CDK4/cyclin D3 was tested by the Caliper Mobility Shift Assay method. The final test concentration of the compound was 10 concentrations, which started from […] and were obtained by three-fold dilution. 5 μL of 5-fold final concentration compound and 10 μL of CDK4/Cyclin D3 kinase solution with final concentration of 10 nM were added to the 384-well reaction plate respectively, and pre incubated at room temperature for 10 minutes (the negative control well contained 10 μL kinase buffer and 5 μL 5% DMSO; the positive control well contained 10 μL kinase solution and 5 μL 5% DMSO). The mixture of 10 μL ATP with a final concentration of 250 μM and the corresponding substrate peptide was added to initiate the reaction, and the mixture was reacted at room temperature for 150 minutes. 30 μL of stop test solution containing EDTA was added to stop the kinase reaction. Conversion rate was read by Caliper EZ Reader. Conversion inhibition rate %=(average conversion rate of positive control %−sample conversion rate %)/(average conversion rate of positive control %−average conversion rate of negative control %). Wherein: the negative control well represents conversion rate reading of wells without enzyme activity; the positive control well represents conversion rate reading of wells without compound inhibition. The log value of concentration was taken as the X-axis and the percentage inhibition rate was the Y-axis. The dose-effect curve was fitted by log(inhibitor) vs. response—Variable slope of the analysis software GraphPad Prism 5, and the IC50 value of each compound on the enzyme activity was obtained. Calculation formula: Y=Bottom+(Top−Bottom)/(1+10^((Log IC50−X)*HillSlope)).
# The IC50 values of the compounds of the present disclosure for CDK6/cyclin D3 and CDK2/cyclin A2 were tested in a similar manner.
# CDK4/cyclin D3, sequence (P11802 whole entry, species assumed): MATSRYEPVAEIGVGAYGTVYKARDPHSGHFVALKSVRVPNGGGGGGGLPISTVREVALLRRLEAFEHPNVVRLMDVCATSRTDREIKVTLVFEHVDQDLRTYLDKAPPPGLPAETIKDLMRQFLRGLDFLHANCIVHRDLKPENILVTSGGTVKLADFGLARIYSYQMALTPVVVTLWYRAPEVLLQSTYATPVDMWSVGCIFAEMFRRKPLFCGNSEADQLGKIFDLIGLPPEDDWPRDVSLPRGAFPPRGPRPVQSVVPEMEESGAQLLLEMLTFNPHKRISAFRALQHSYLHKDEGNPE
# CDK4/cyclin D3, sequence (P30281 whole entry partner, species assumed): as the sequence (P30281 whole entry partner, species assumed) above
Compound,IC50 (CDK4/cyclin D3) [nM],IC50 (CDK6/cyclin D3) [nM],IC50 (CDK2/cyclin A2) [nM]
"CC(C)n1nnc2ccc3cnc(Nc4ccc(N5CCC(CCCO)CC5)cc4)nc3c21 [Compound I-27, 3-(1-(4-((1-isopropyl-1H-[1,2,3]triazolo [4,5-h]quinazolin-8-yl)amino)phenyl)pi-peridin-4-yl)propan-1-ol]",50 to 100,50 to 100,50 to 100
"CC(C)n1nnc2ccc3cnc(Nc4ccc(N5CCNCC5)cc4F)nc3c21 [Compound I-28, N-(2-Fluoro-4-(piperazin-1-yl)phenyl)-1-isopropyl-1H-[1,2,3]triazolo[4,5-h]quin-azolin-8-amine hydrochloride]",< 10,< 10,< 10
"CC(C)n1nnc2ccc3cnc(Nc4ccc(N5CCOCC5)cc4F)nc3c21 [Compound I-29, N-(2-Fluoro-4-morpholinophenyl)-1-iso-propyl-1H-[1,2,3]triazolo[4,5-h]quinazo-lin-8-amine]",50 to 100,50 to 100,50 to 100
"COc1cc(N2CCNCC2)ccc1Nc1ncc2ccc3nnn(C(C)C)c3c2n1 [Compound I-30, 1-Isopropyl-N-(2-methoxy-4-(piperazin-1-yl)phenyl)-1H-[1,2,3]triazolo[4,5-h]quin-azolin-8-amine hydrochloride]",< 10,< 10,< 10
"CC(C)n1nnc2ccc3cnc(Nc4ccc(N5CCNCC5)c(F)c4)nc3c21 [Compound I-32, N-(3-Fluoro-4-(piperazin-1-yl)phenyl)-1-isopropyl-1H-[1,2,3]triazolo[4,5-h]quin-azolin-8-amine hydrochloride]",< 10,< 10,< 10
"CCN1CCN(c2ccc(Nc3ncc4ccc5nnn(C(C)C)c5c4n3)cc2F)CC1 [Compound I-34, N-(4-(4-Ethylpiperazin-1-yl)-3-fluorophe-nyl)-1-isopropyl-1H-[1,2,3]triazolo[4,5-h]quinazolin-8-amine hydrochloride]",< 10,< 10,< 10
"CC(C)n1nnc2ccc3cnc(Nc4cccc(S(N)(=O)=O)c4)nc3c21 [Compound I-36, 3-((1-isopropyl-1H-[1,2,3]triazolo[4,5-h]quinazolin-8-yl)amino)benzenesulfonamide hydrochloride]",< 10,< 10,< 10
CC(C)n1nnc2ccc3cnc(Nc4ccc(C(=O)N5CCN(C)CC5)cc4)nc3c21 [Compound I-40],< 10,< 10,< 10

# Further lines, results first:
IC50 (CDK4/cyclin D3) [nM],IC50 (CDK6/cyclin D3) [nM],IC50 (CDK2/cyclin A2) [nM],Compound
< 10,< 10,< 10,"CC(C)n1nnc2ccc3cnc(Nc4ccc(N5CCOCC5)cc4)nc3c21 [Compound I-26, 1-Isopropyl-N-(4-morpholinophenyl)-1H-[1,2,3]triazolo[4,5-h]quinazolin-8-amine]"
50 to 100,50 to 100,50 to 100,"COc1cc(N2CCN(C)CC2)ccc1Nc1ncc2ccc3nnn(C(C)C)c3c2n1 [Compound I-31, 1-Isopropyl-N-(2-methoxy-4-(4-methyl-piperazin-1-yl)phenyl)-1H-[1,2,3]triazo-lo[4,5-h]quinazolin-8-amine]"
< 10,< 10,< 10,"CC(C)n1nnc2ccc3cnc(Nc4ccc(N5CCN(C)CC5)c(F)c4)nc3c21 [Compound I-33, N-(3-Fluoro-4-(4-methylpiperazin-1-yl)phenyl)-1-isopropyl-1H-[1,2,3]triazolo[4,5-h]quinazolin-8-amine]"
10 to 50,10 to 50,10 to 50,"CC(C)n1nnc2ccc3cnc(Nc4ccc(N5CCOCC5)c(F)c4)nc3c21 [Compound I-35, N-(3-Fluoro-4-morpholinophenyl)-1-iso-propyl-1H-[1,2,3]triazolo[4,5-h]quinazo-lin-8-amine hydrochloride]"
< 10,< 10,< 10,"CC(C)n1nnc2ccc3cnc(Nc4ccc(N(CCN5CCOCC5)S(C)(=O)=O)cc4)nc3c21 [Compound I-37, N-(4-((1-Isopropyl-1H-[1,2,3]triazolo[4,5-h]quinazolin-8-yl)amino)phenyl)-N-(2-morpholinoethyl)methanesulfonamide]"
< 10,< 10,< 10,"CC(C)n1nnc2ccc3cnc(Nc4ccc(OCCN(C)C)cc4)nc3c21 [Compound I-38, N-(4-(2-(Dimethylamino)ethoxy)phenyl)-1-isopropyl-1H-[1,2,3]triazolo[4,5-h]quin-azolin-8-amine]"
< 10,< 10,< 10,"CC(C)n1nnc2ccc3cnc(Nc4ccc(C(=O)N5CCNCC5)cc4)nc3c21 [Compound I-39, (4-((1-Isopropyl-1H-[1,2,3]triazolo[4,5-h]quinazolin-8-yl)amino)phenyl)(piper-azin-1-yl)methanone hydrochloride]"
